Laboratory results from patent EP0933350A1, “Tricyclic retinoids, methods for their production and use” (LIGAND PHARMACEUTICALS INCORPORATED, priority 1994, dated 1996).

What was measured:
RPMI 8226 cell line [1] = assay: viability (tetrazolium dye, mitochondrial function); format: cell-based; settings: Homo sapiens, 96 hours, read-out: MTS IC50
RPMI 8226 cell line [2] = assay: incorporation of 3H-thymidine (antiproliferative); format: cell-based; settings: Homo sapiens, 96 hours, radiolabeled thymidine incorporation, read-out: TdR IC50
ME 180 cell line [3] = assay: viability (tetrazolium dye, mitochondrial function); format: cell-based; settings: Homo sapiens, 96 hours, read-out: MTS IC50
ME 180 cell line [4] = assay: incorporation of 3H-thymidine (antiproliferative); format: cell-based; settings: Homo sapiens, 96 hours, radiolabeled thymidine incorporation, read-out: TdR IC50
AML-193 cell line [5] = assay: incorporation of 3H-thymidine (antiproliferative); settings: Homo sapiens, 96 h, read-out: TdR IC50 (nM)
AML-193 cell line [6] = assay: viability (tetrazolium dye, mitochondrial function); format: cell-based; settings: Homo sapiens, 96 hours, read-out: MTS IC50
TPA induction of ODC = assay: ornithine decarboxylase (ODC) assay: inhibition of TPA induction of ODC; format: cell-based; settings: concentration required to inhibit the TPA induction of ODC by 80 percent

| Compound | IC50 (RPMI 8226 cell line [1]) [nM] | IC50 (RPMI 8226 cell line [2]) [nM] | IC50 (ME 180 cell line [3]) [nM] | IC50 (ME 180 cell line [4]) [nM] | IC50 (AML-193 cell line [5]) [nM] | IC50 (AML-193 cell line [6]) [nM] | IC80 (TPA induction of ODC) [nM] |
| --- | --- | --- | --- | --- | --- | --- | --- |
| CC(/C=C/C=C1/CC(C)(C)Oc2cc3c(cc21)C(C)(C)CCC3(C)C)=C\C(=O)O [Compound 104b, (2E,4E)-3-Methyl-6-(2,3,6,7,8,9-hexahydro-2,2,6,6,9,9-hexamethylbenzo[b]-chromen-4-ylidene)-hexa-2,4-dienoic acid] | 90 | 30 | 1000 | 90 | 90 | 1000 |  |
| CCOC(=O)/C=C(C)/C=C/C=C1/CCCc2cc3c(cc21)C(C)(C)CCC3(C)C [Compound 101a, Ethyl (2E,4E)-3-methyl-6-[(Z)-3,4,5,6,7,8-hexahydro-5,5,8,8-tetramethyl-2H-anthracen-1-ylidene]hexa-2,4-dienoate] |  |  |  |  |  |  | 91 |
